{
  "source": "patent US6710075B2",
  "about": "“Therapeutic compounds and methods” (The Government of the State of Sarawak, Malaysia, priority 2000, dated 2004)",
  "key": {"A549 cells [1]": {"system": "A549 cells", "test": "Senescence-associated β-galactosidase (SA-β-gal) activity staining", "type": "cell-based, human", "conditions": "A549, 10-50 nM, 10 days", "description": "A549 cells were seeded at 10,000 cell/well in 6 well plates in the presence or absence of varying concentrations of Compound A (10-50 nM) or 250 nM doxorubicin for 10 days prior to their processing and staining overnight for senescence-associated β-galactosidase activity as described previously (Dimri et al., 1995, Proc Natl Acad Sci USA 1995 92(20):9363-7). […] PC, phase contrast microscopy. BF, bright field microscopy Magnification×200.\nThis was evaluated further by measuring senescence-associated β-galactosidase (SA-β-gal) activity, a biomarker previously described to correlate well with senescence of human cells (Dimri et al., Proc Natl Acad Sci USA 1995 92(20):9363-7). […] Therefore, in addition to Compound A A549 cells were also treated with doxorubicin as an experimental control."}, "K562 leukemic cells": {"system": "K562 leukemic cells", "test": "DNA content analysis (cell cycle) of K562 leukemic cells", "type": "cell-based, human", "conditions": "K562, 10-15 nM, 3 days", "description": "K562 cells were cultured for 3 days with the indicated concentration of Compounds A or B then collected and fixed in 70% ethanol prior to staining with propidium iodide and DNA content determined by flow cytometry. The numbers indicate the % of cells in G0/G1, S and G2/M phases of the cell cycle respectively relative to all cells with ≧2N DNA content."}, "A549 cells [2]": {"system": "A549 cells", "test": "Relative cell size by forward light scatter (flow cytometry)", "type": "cell-based, human", "conditions": "for % increase in mean cell volume: six days", "description": "It is well known that cell proliferation and cell growth reflected as increased mass of individual cells are biochemically separable processes (Pardee, Science, 1989, 246:603-8). Although at certain concentrations Compound A can inhibit cell proliferation without overt cytotoxicity it was also evaluated whether Compound A also affected cell growth. For these experiments A549 cells were treated with various non-cytotoxic doses of Compound A up to 10 nM and the relative cell size determined after 6 days of culture by measuring forward light scatter using a flow cytometer. […] This occurred only at concentrations which are cytostatic for this cell type."}, "[3]": {"system": "HL60 human promyelocytic leukemic cells", "test": "Monocytic differentiation, CD14 surface antigen expression by flow cytometry", "type": "cell-based", "conditions": "4 days", "description": "This is a morphology highly characteristic of mature macrophages and similar morphological effects were observed when the cells were treated with other known inducers of macrophage differentiation including interferon-γ (IFNγ) or phorbol 12-myristate 13-acetate (PMA). To investigate this further the effects of Compound A on HL60 human promyelocytic leukemic cells (Collins, et al, Nature, 1977, 270:347-9) were examined (Table 11). This widely used cell line is well characterised as a model of human myelomonocytic differentiation (Collins, Blood, 1987, 70(5):1233-44). In this experiment monocytic differentiation was quantitated by measuring CD14 surface antigen expression by flow cytometric analysis CD14, all LPS-binding protein, is expressed on the surface of cells of the myelomonocytic lineage and is normally expressed at very low levels in undifferentiated HL60 cells (Ferrero et al., Blood, 1983, 61(1):171-9)."}, "A549 cells [4]": {"system": "A549 cells", "test": "Cell death as loss of membrane integrity, YOYO-1 uptake", "type": "cell-based", "conditions": "Homo sapiens, 72 h; A549 cells, 3 days, YOYO-1 uptake; read-out: LC50 (the source's name)", "from_the_text": "(§1) (a) Table 8 compares the cytostatic and cytotoxic effects of Compound A to three previously identified 1H-cyclopenta[b]benzofuran lignans that lack the dioxanyloxy group at the C6-position. The reference compounds are: Rocaglaol (Reference Compound 1) (Ohse et al., J Nat Prod, 1996, 59(7):650-52); 4′-Demethoxy-3′,4′-methylenedioxyrocaglaol (Reference Compound 2) and Methyl 4′-demethoxy-3′,4′-methylenedioxyrocaglate (Reference Compound 3) (Lee et al., Chem Biol Interact, 1998, 115(3):215-28)."}, "THP-1 cells": {"system": "THP-1 cells", "test": "Cell death as loss of membrane integrity, YOYO-1 uptake", "type": "cell-based", "conditions": "Homo sapiens, 72 h; THP-1 cells, 3 days, YOYO-1 uptake; read-out: LC50 (the source's name)", "from_the_text": "as §1"}, "A549 cells [5]": {"system": "A549 cells", "test": "DNA content analysis (cell cycle and viability) of A549 cells, 6 days", "type": "cell-based, human", "conditions": "A549, 10 nM", "description": "A549 cells were cultured for 6 days with the indicated concentration of Compound A or 1 μM paclitaxel then collected and fixed in 70% ethanol prior to staining with propidium iodide and DNA content determined by flow cytometry. The numbers indicate the % of cells in the various cell cycle phases relative to all cells with ≧2N DNA content and also the % dead cells (ie. subdiploid≦2N cells) to the left of the marker that arose during the culture period.\nTo help identify a potential mechanism for the effects of Compound A, DNA content analysis was performed to determine where in the cell cycle it exerted its effect (FIG. 4). […] This contrasts to the effects of paclitaxel a drug known to act selectively at the G2/M phases of the cell cycle (FIG. 4). As the concentration of Compound A was increased and its cytotoxic effects became evident the proportion of cells in the S and G2/M phases decreased with a corresponding rise in cells in G0/G1 phases. […] Thus, compared to THP-1 cells (see FIG. 2) higher concentrations of Compound A are required to inhibit progression through the G0/G1 phases of the cell cycle in A549 cells."}, "PC3": {"system": "PC3", "test": "Cytostatic activity, relative cell number by YOYO-1 DNA dye", "type": "cell-based", "conditions": "Homo sapiens, PC-3, 72 h; PC3, prostate; read-out: GI50 (3 day cultures)", "description": "(§2) (b) Compound A was assessed for cytotoxic and cytostatic activity against a panel of cell lines derived from a variety of human tumour types in addition to THP-1 and A549 cells (Table 5). These included K562 leukemic cells (Lozzio and Lozzio, 1975, Blood 45:321-34), PC3 prostate tumour cells (Kaighn et al., 1979, Invest. Urol. 17:16-23) and SF268 glioblastoma cells (Westphal et al, 1985, Biochem. Biophys. Res. Commun., 132:284-9). […] However, the cytotoxic potency of Compound A increased dramatically after 6 days of culture for the K562, A549 and SF268 cells."}, "K562": {"system": "K562", "test": "Cytostatic activity, relative cell number by YOYO-1 DNA dye", "type": "cell-based", "conditions": "Homo sapiens, 72 h; K562, leukemia; read-out: GI50 (3 day cultures)", "description": "as §2"}, "SF268": {"system": "SF268", "test": "Cytostatic activity, relative cell number by YOYO-1 DNA dye", "type": "cell-based", "conditions": "Homo sapiens, SF-268, 72 h; SF268, brain; read-out: GI50 (3 day cultures)", "description": "as §2"}},
  "data": [
    {"smiles": "COC(=O)[C@H]1[C@@H](O)[C@@]2(O)c3c(OC)cc(OC4OC(C(O)CO)COC4OC)cc3O[C@@]2(c2ccc(OC)cc2)[C@@H]1c1ccccc1", "note": "(single isomer, unassigned) [Compound A]", "values": [
      {"measurement": "SA-β-gal activity", "setting": "A549 cells [1]", "result": "failed to induce SA-β-gal activity"},
      {"measurement": "cell cycle phase accumulation", "setting": "K562 leukemic cells", "result": "characteristic accumulation of cells in G2/M phases of the cell cycle"},
      {"measurement": "% increase in mean cell volume", "setting": "A549 cells [2]; A549, 2.5 nM", "result": 10.4, "unit": "%"},
      {"measurement": "% increase in mean cell volume", "setting": "A549 cells [2]; A549, 5.0 nM", "result": 10.7, "unit": "%"},
      {"measurement": "% increase in mean cell volume", "setting": "A549 cells [2]; A549, 10.0 nM", "result": 22.4, "unit": "%"},
      {"measurement": "increase in the mean forward scatter", "setting": "A549 cells [2]; A549, non-cytotoxic doses up to 10 nM, 6 days", "result": "over 20%"},
      {"measurement": "% cells expressing CD14", "setting": "[3]; HL60, 5 nM", "result": 3.3, "unit": "%"},
      {"measurement": "% cells expressing CD14", "setting": "[3]; HL60, 10 nM", "result": 5.7, "unit": "%"},
      {"measurement": "% cells expressing CD14", "setting": "[3]; HL60, 25 nM", "result": 46.0, "unit": "%"},
      {"measurement": "% cells expressing CD14", "setting": "[3]; HL60, 50 nM", "result": 43.0, "unit": "%"},
      {"measurement": "CD14 expression in viable HL60 cells", "setting": "[3]; doses greater than 10 nM", "result": "significantly enhanced CD14 expression"},
      {"measurement": "CC50", "setting": "A549 cells [4]", "result": 514, "unit": "nM"},
      {"measurement": "CC50", "setting": "THP-1 cells", "result": 15, "unit": "nM"},
      {"measurement": "cell cycle distribution", "setting": "A549 cells [5]", "result": "a minor decline in the proportion of cells in the G0/G1 phases of the cell cycle with a concomitant increase in cells in the G2/M phases"},
      {"measurement": "GI50", "setting": "PC3", "result": 5, "unit": "nM"},
      {"measurement": "GI50", "setting": "K562", "result": 1, "unit": "nM"},
      {"measurement": "GI50", "setting": "SF268", "result": 3, "unit": "nM"}
    ]}
  ]
}
